Experimental data reported in US8969406B2, “Use of compound for inhibiting glutathione s-transferase omega 1 activity and method for synthesizing the same” (China Medical University, priority 2013, dated 2015).
Read-outs that look alike come from different tables or passages of the source.

Tests used:
[1] = tested on: prostate cancer cell line (DU145); assay: In vitro cytotoxicity assay, cancer cell growth inhibition, DU145 cell
From the text: (§1) For evaluating the in vitro growth inhibitory concentrations ([…], μM) of the compound represented by Formula 1 of the present disclosure, human oralepithelial carcinoma cell line (KB), multidrug-resistant nasopharyngeal carcinoma cell line (KB-Vin), human lung adenocarcinoma cell line (A549), and prostate cancer cell line (DU145) were used in the following experiment. The GI50 values of Paclitaxel, an anticancer chemotherapy drug, were used as control.

[2] = tested on: human oralepithelial carcinoma cell line (KB); assay: In vitro cytotoxicity assay, cancer cell growth inhibition, KB cell
From the text: as §1

[3] = tested on: multidrug-resistant nasopharyngeal carcinoma cell line (KB-Vin); assay: In vitro cytotoxicity assay, cancer cell growth inhibition, KB-Vin cell
From the text: as §1

[4] = tested on: human lung adenocarcinoma cell line (A549); assay: In vitro cytotoxicity assay, cancer cell growth inhibition, A549 cell
From the text: as §1

GSTO1 = biological target: T1, GSTO1 (Homo sapiens, UniProt P78417); assay: Enzyme activity assay of GST omega 1 (GSTO1) with 4NPG substrate; format: biochemical; details: 2 nM GSTO1, 0.5 mM 4NPG, 30 min 25° C. pre-reaction, O.D.305
T1 sequence (P78417 1-241): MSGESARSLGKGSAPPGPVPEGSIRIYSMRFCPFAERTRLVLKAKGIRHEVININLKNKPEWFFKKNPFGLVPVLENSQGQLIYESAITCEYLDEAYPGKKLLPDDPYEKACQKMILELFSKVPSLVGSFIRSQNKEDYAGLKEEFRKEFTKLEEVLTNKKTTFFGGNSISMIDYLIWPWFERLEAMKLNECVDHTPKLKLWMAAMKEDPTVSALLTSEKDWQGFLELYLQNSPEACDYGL
Description: First, 100 μl mixture having 2 nM GSTO1, 100 mM Tris (pH 8.0), 1.5 mM EDTA, and 10 mM 2-mercaptoethanol were added into each well of an UV-penetrable 96-well culture plate. Besides, 100 μl buffer having 100 mM Tris (pH 8.0), 1.5 mM EDTA, and 10 mM 2-mercaptoethanol were used as blank control.
Then, 4NPG were added to each of the aforementioned mixture to a final concentration of 0.5 mM.

[5] = Homo sapiens, DU-145, read-out: In vitro cytotoxicity assay: GI50 (μM) DU145 cell
[6] = Homo sapiens, A549, read-out: In vitro cytotoxicity assay: GI50 (μM) A549 cell
[7] = read-out: In vitro cytotoxicity assay: GI50 (μM) DU145 cell, DU145 cell
[8] = read-out: In vitro cytotoxicity assay: GI50 (μM) A549 cell, A549 cell

| Structure (SMILES) | In vitro cytotoxicity assay: GI50 (μM) KB cell ([2]; KB cell) [µM] | In vitro cytotoxicity assay: GI50 (μM) KB-Vin cell ([3]; KB-Vin cell) [µM] | GI50 [1] [µM] | In vitro cytotoxicity assay: GI50 (μM) KB cell [2] [µM] | In vitro cytotoxicity assay: GI50 (μM) KB-Vin cell [3] [µM] | GI50 [4] [µM] | also measured |
| --- | --- | --- | --- | --- | --- | --- | --- |
| O=C1C=CC(O)(c2cc(=O)c3c(ccc4ccccc43)o2)C=C1 [Compound main structure] | 0.865 | 0.674 | – | – | – | – | GI50 [1, 5]: 0.799 µM; GI50 [4, 6]: 0.763 µM |
| CC(=O)O[C@H]1C(=O)[C@@]2(C)[C@H]([C@H](OC(=O)c3ccccc3)[C@]3(O)C[C@H](OC(=O)[C@H](O)[C@@H](NC(=O)c4ccccc4)c4ccccc4)C(C)=C1C3(C)C)[C@]1(OC(C)=O)CO[C@@H]1C[C@@H]2O [Paclitaxel, reference compound] | – | – | – | – | – | – | GI50 ([1]; Homo sapiens, DU-145, read-out: GI50 DU145 cell (control)): 0.003 µM; GI50 KB cell (control) ([2]; KB cell): 4.64 nM; GI50 KB-Vin cell (control) ([3]; KB-Vin cell): >1000 nM; GI50 ([4]; Homo sapiens, A549, read-out: GI50 A549 cell (control)): 0.00356 µM |
| O=C1C=CC(O)(c2cc(=O)c3c(O)cc(O)cc3o2)C=C1 [compound A] | – | – | – | – | – | – | inhibitory effect against GSTO1 enzyme activity (competition with 4NPG, FIG. 1) (GSTO1): slight |
| COc1ccc2c(ccc3oc(C4(O)C=CC(=O)C=C4)cc(=O)c32)c1 [compound B] | – | – | – | – | – | – | inhibitory effect against GSTO1 enzyme activity (competition with 4NPG, FIG. 1) (GSTO1): slight |
| O=C1C=CC(O)(c2cc(=O)c3c(ccc4cc(OC(=O)N5CCOCC5)ccc43)o2)C=C1 [side chain No. 6] | – | – | 0.617 | 0.607 | 0.64 | 0.603 | – |
| O=C1C=CC(O)(c2cc(=O)c3c(ccc4cc(OC(=O)N5CCCCC5)ccc43)o2)C=C1 [side chain No. 7] | – | – | 0.522 | 0.615 | 0.619 | 0.536 | – |
| COc1ccc2c(ccc3oc(C4(O)C=CC(=O)C=C4)cc(=O)c32)c1 [side chain No. 8] | 0.871 | 0.692 | – | – | – | – | GI50 [1, 7]: 0.707 µM; GI50 [4, 8]: 0.811 µM |
| COCOc1ccc2c(ccc3oc(C4(O)C=CC(=O)C=C4)cc(=O)c32)c1 [side chain No. 10] | 0.786 | 0.766 | – | – | – | – | GI50 [1, 7]: 0.865 µM; GI50 [4, 8]: 0.819 µM |
| CC(C)CCOc1ccc2c(ccc3oc(C4(O)C=CC(=O)C=C4)cc(=O)c32)c1 [side chain No. 11] | 0.2 | 0.269 | – | – | – | – | GI50 [1, 5]: 0.231 µM; GI50 [4, 6]: 0.382 µM |
| CC(C)CCCC(C)CCOc1ccc2c(ccc3oc(C4(O)C=CC(=O)C=C4)cc(=O)c32)c1 (centres unmarked) [side chain No. 12] | 0.067 | 0.335 | – | – | – | – | GI50 [1, 5]: 0.065 µM; GI50 [4, 6]: 0.233 µM |
| CCC(C)CCCC(C)CCOc1ccc2c(ccc3oc(C4(O)C=CC(=O)C=C4)cc(=O)c32)c1 (centres unmarked) [side chain No. 13] | – | – | 1.26 | 1.115 | 1.883 | 4.27 | – |
| CN(C)CCOc1ccc2c(ccc3oc(C4(O)C=CC(=O)C=C4)cc(=O)c32)c1 [side chain No. 14] | 0.683 | 0.841 | – | – | – | – | GI50 [1, 7]: 0.808 µM; GI50 [4, 8]: 0.754 µM |
| CCN(CC)CCOc1ccc2c(ccc3oc(C4(O)C=CC(=O)C=C4)cc(=O)c32)c1 [side chain No. 15] | – | – | 0.685 | 0.644 | 1.325 | 0.551 | – |
| CC(C)N(CCOc1ccc2c(ccc3oc(C4(O)C=CC(=O)C=C4)cc(=O)c32)c1)C(C)C [side chain No. 16] | – | – | 0.62 | 0.55 | 0.682 | 0.584 | – |
| O=C1C=CC(O)(c2cc(=O)c3c(ccc4cc(OCCN5CCCCC5)ccc43)o2)C=C1 [side chain No. 17] | – | – | 0.541 | 0.499 | 0.675 | 0.483 | – |
| O=C1C=CC(O)(c2cc(=O)c3c(ccc4cc(OCCN5CCCC5)ccc43)o2)C=C1 [side chain No. 18] | – | – | 0.693 | 0.552 | 1.108 | 0.628 | – |
| O=C1C=CC(O)(c2cc(=O)c3c(ccc4cc(O)ccc43)o2)C=C1 [side chain No. 19] | 0.944 | 0.738 | – | – | – | – | GI50 [1, 7]: 0.709 µM; GI50 [4, 8]: 0.806 µM |
